Reference: patent US9980943B2, “Methods of treating muscular dystrophy” (BOARD OF REGENTS OF THE NEVADA SYSTEM OF HIGHER EDUCATION, …, priority 2013, dated 2018)

Columns and labels:
Assay type in all cases: cell-based, mouse
[1] = test system: α7 integrin (LacZ reporter in α7βgal+/− myoblasts); test: Myoblast α7+/LacZ integrin FDG assay (Burkin assay in myoblasts, 96-well); settings: α7+/LacZ myoblasts, 96-well
[2] = test system: α7 integrin (LacZ reporter in α7+/LacZ myotubes); test: Myotube α7 integrin FDG assay (Burkin assay in myotubes, 96-well); settings: myotubes
[3] = test system: β-galactosidase in CMV-LacZ C2C12 myoblasts; test: CMV-LacZ secondary screen in C2C12 myoblasts (β-Gal stabilizing assay); settings: CMV-LacZ C2C12 myoblasts
Method in brief: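 CMV-LacZ C2C12 line (clonal, FDG-screened); myoblasts/myotubes dosed 0.5–40 μM (0.5, 1, 5, 10, 20, 40 μM); n=2 per point; β-gal stabilization read-out.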

[4] = test system: β-galactosidase in CMV-LacZ C2C12 myotubes; test: CMV-LacZ secondary screen in C2C12 myotubes (β-Gal stabilizing assay); settings: C2C12 CMV-LacZ myotubes, fold relative to DMSO
Method in brief: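 Stable CMV-LacZ C2C12 clone; six-point curve 0.5–40 μM; duplicates.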

| Compound | Burkin Assay in Myoblasts, signal relative to DMSO ([1]; 0.5 uM) | Burkin Assay in Myoblasts, signal relative to DMSO ([1]; 1 uM) | Burkin Assay in Myoblasts, signal relative to DMSO ([1]; 5 uM) | Burkin Assay in Myoblasts, signal relative to DMSO ([1]; 10 uM) | Burkin Assay in Myoblasts, signal relative to DMSO ([1]; 20 uM) | Burkin Assay in Myoblasts, signal relative to DMSO ([1]; 40 uM) | Burkin Assay in Myotubes, α7 integrin LacZ reporter signal relative to DMSO ([2]; 0.5 uM) | Burkin Assay in Myotubes, α7 integrin LacZ reporter signal relative to DMSO ([2]; 1 uM) | Burkin Assay in Myotubes, α7 integrin LacZ reporter signal relative to DMSO ([2]; 5 uM) | Burkin Assay in Myotubes, α7 integrin LacZ reporter signal relative to DMSO ([2]; 10 uM) | Burkin Assay in Myotubes, α7 integrin LacZ reporter signal relative to DMSO ([2]; 20 uM) | Burkin Assay in Myotubes, α7 integrin LacZ reporter signal relative to DMSO ([2]; 40 uM) | CMV-LACZ in Myoblasts (β-galactosidase activity relative to DMSO) ([3]; 0.5 uM) | CMV-LACZ in Myoblasts (β-galactosidase activity relative to DMSO) ([3]; 1 uM) | CMV-LACZ in Myoblasts (β-galactosidase activity relative to DMSO) ([3]; 5 uM) | CMV-LACZ in Myoblasts (β-galactosidase activity relative to DMSO) ([3]; 10 uM) | CMV-LACZ in Myoblasts (β-galactosidase activity relative to DMSO) ([3]; 20 uM) | CMV-LACZ in Myoblasts (β-galactosidase activity relative to DMSO) ([3]; 40 uM) | CMV-LACZ in Myotubes, signal relative to DMSO ([4]; 0.5 uM) | CMV-LACZ in Myotubes, signal relative to DMSO ([4]; 1 uM) | further results |
| --- | --- | --- | --- | --- | --- | --- | --- | --- | --- | --- | --- | --- | --- | --- | --- | --- | --- | --- | --- | --- | --- |
| CCc1c(C)sc(NC(=O)c2ccco2)c1C#N [MLS001240181-01] | 1.082 | 1.081 | 1.4585 | 1.074 | 1.153 | 1.198 | 1.174 | 1.214 | 1.643 | 0.9683 | 0.8871 | 0.7905 | 0.9550 | 1.0441 | 0.8408 | 1.1645 | 1.0367 | 0.8907 | 0.9519 | 1.0511 | CMV-LACZ in Myotubes, signal relative to DMSO ([4]; 5 uM): 1.0895; CMV-LACZ in Myotubes, signal relative to DMSO ([4]; 10 uM): 0.9955; CMV-LACZ in Myotubes, signal relative to DMSO ([4]; 20 uM): 1.0976; CMV-LACZ in Myotubes, signal relative to DMSO ([4]; 40 uM): 1.1376 |
| Cc1nnc(-c2ccc(N3CCOCC3)c([N+](=O)[O-])c2)o1 [MLS001359861-01] | 0.9353 | 0.9376 | 0.9484 | 0.9324 | 0.8725 | 0.9113 | 1.095 | 1.184 | 0.9088 | 0.876 | 1.0337 | 0.804 | 0.9444 | 0.9184 | 0.9009 | 0.8064 | 0.9074 | 1.0330 | 0.8978 | 0.9533 | CMV-LACZ in Myotubes, signal relative to DMSO ([4]; 5 uM): 0.9547; CMV-LACZ in Myotubes, signal relative to DMSO ([4]; 10 uM): 1.1230; CMV-LACZ in Myotubes, signal relative to DMSO ([4]; 20 uM): 0.9976; CMV-LACZ in Myotubes, signal relative to DMSO ([4]; 40 uM): 0.9412 |
| CCCN(C(=O)c1ccc(S(=O)(=O)N2CCCC2)cc1)C1CCS(=O)(=O)C1 (stereo not drawn) [MLS002161853-01] | 0.8569 | 0.8278 | 0.9386 | 1.1978 | 1.073 | 0.9354 | 0.8761 | 0.8092 | 0.9889 | 1.16 | 0.919 | 0.9353 | 1.0131 | 0.8734 | 0.8819 | 0.9436 | 1.0922 | 0.9348 | 1.0524 | 0.8352 | CMV-LACZ in Myotubes, signal relative to DMSO ([4]; 5 uM): 1.1122; CMV-LACZ in Myotubes, signal relative to DMSO ([4]; 10 uM): 0.9103; CMV-LACZ in Myotubes, signal relative to DMSO ([4]; 20 uM): 1.2341; CMV-LACZ in Myotubes, signal relative to DMSO ([4]; 40 uM): 1.0647 |
| CN1C(=O)N(CC(=O)N2CCN(S(=O)(=O)c3ccc(Cl)s3)CC2)C(=O)C12CCCCC2 [MLS002162890-01] | 1.107 | 1.034 | 1.1338 | 1.261 | 0.694 | 0.4924 | 1.051 | 1.185 | 0.9351 | 1.1501 | 0.7452 | 0.803 | 0.8392 | 0.8713 | 0.9701 | 0.9939 | 0.7603 | 0.9507 | 1.0682 | 1.0191 | CMV-LACZ in Myotubes, signal relative to DMSO ([4]; 5 uM): 1.1237; CMV-LACZ in Myotubes, signal relative to DMSO ([4]; 10 uM): 1.0530; CMV-LACZ in Myotubes, signal relative to DMSO ([4]; 20 uM): 1.0140; CMV-LACZ in Myotubes, signal relative to DMSO ([4]; 40 uM): 1.0170 |
| CCN(CC(=O)NCc1cccs1)C(=O)COc1ccc(C(N)=O)cc1 [MLS002163101-01] | 0.9552 | 0.9442 | 0.9699 | 1.251 | 0.9457 | 0.9775 | 1.045 | 0.9075 | 1.101 | 1.302 | 0.7782 | 0.9761 | 0.9991 | 1.0317 | 1.0262 | 1.0313 | 0.9644 | 1.1556 | 1.0533 | 1.1400 | CMV-LACZ in Myotubes, signal relative to DMSO ([4]; 5 uM): 0.8302; CMV-LACZ in Myotubes, signal relative to DMSO ([4]; 10 uM): 0.8407; CMV-LACZ in Myotubes, signal relative to DMSO ([4]; 20 uM): 0.9212; CMV-LACZ in Myotubes, signal relative to DMSO ([4]; 40 uM): 1.5447 |
| CC(C)CN(C(=O)c1cccc(Cl)c1)c1c(N)n(Cc2ccccc2)c(=O)[nH]c1=O [MLS002163670-01] | 1.117 | 1.234 | 1.012 | 0.9468 | 0.8972 | 0.7779 | 1.223 | 1.294 | 0.9778 | 1.072 | 0.8526 | 0.735 | 1.1806 | 0.8738 | 0.8671 | 0.9725 | 0.8611 | 1.4715 | 0.9237 | 1.2044 | CMV-LACZ in Myotubes, signal relative to DMSO ([4]; 5 uM): 0.9788; CMV-LACZ in Myotubes, signal relative to DMSO ([4]; 10 uM): 0.8898; CMV-LACZ in Myotubes, signal relative to DMSO ([4]; 20 uM): 1.1659; CMV-LACZ in Myotubes, signal relative to DMSO ([4]; 40 uM): 1.1235 |
